Earlier results as cited in US7452858B2, “Treatment of gestational diabetes” (Amylin Pharmaceuticals, Inc., priority 1999, dated 2008).
Read-outs that look alike come from different tables or passages of the source. Where no end group is shown, it is not given here.

What was measured:
[1] = tested on: cloned GLP-1 receptor; details: transfected cells
[2] = rats, intracerebroventricular injection
[3] = mice, peripheral injection

Row | Substance | action at the cloned GLP-1 receptor (cAMP) [1] | effect on food intake [2] | effect on food intake [3]
1 | exendin[9-39]: C-terminally truncated exendin peptide, a carboxyamidated molecule, reported antagonist of GLP-1 | antagonist | – | –
2 | GLP-1 [7-36]NH2 (HAEGTFTSDVSSYLEGQAAKEFIAWLVKGR-NH2) | – | inhibits food intake | does not inhibit food intake
